Assay results taken from the supplement of paper PMC10307832.

Experiments:
Assay in all cases: relative viability (nuclei count vs DMSO), 5 days (fraction); higher = more cells survive
NCI-H1563 = test system: NCI-H1563
Summary of the method: (§1)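 Five library-drug doses in √10 steps were combined with a fixed anchor-drug dose, or a single drug was given alone, by pin tool to lung cancer cell lines in 1536-well plates the day after seeding. Nuclei were stained and counted after 5 days. Relative viability is the nuclei count in treated wells over that in vehicle wells, taken as the median of duplicate plates.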

NCI-H1623 = test system: NCI-H1623
Summary of the method: as §1

NCI-H2342 = test system: NCI-H2342
Summary of the method: as §1

NCI-H522 = test system: NCI-H522
Summary of the method: as §1

SW 900 = test system: SW 900
Summary of the method: as §1

A549 = test system: A549
Summary of the method: as §1

O=C(O)CCCCC(CCSCc1ccccc1)SCc1ccccc1 (centres undefined) [CPI-613] + Cc1nc(Nc2ncc(C(=O)Nc3c(C)cccc3Cl)s2)cc(N2CCN(CCO)CC2)n1 [Dasatinib] (partner 0.075 µM)
relative viability (NCI-H1563; first compound 5 µM): 0.455
relative viability (NCI-H1563; first compound 15.81 µM): 0.443
relative viability (NCI-H1563; first compound 50 µM): 0.436
relative viability (NCI-H1563; first compound 158.11 µM): 0.461
relative viability (NCI-H1563; first compound 500 µM): 0.456
relative viability (NCI-H1623; first compound 5 µM): 0.592
relative viability (NCI-H1623; first compound 15.81 µM): 0.566
relative viability (NCI-H1623; first compound 50 µM): 0.549
relative viability (NCI-H1623; first compound 158.11 µM): 0.39
relative viability (NCI-H1623; first compound 500 µM): 0.569
relative viability (NCI-H2342; first compound 5 µM): 0.315
relative viability (NCI-H2342; first compound 15.81 µM): 0.275
relative viability (NCI-H2342; first compound 50 µM): 0.315
relative viability (NCI-H2342; first compound 158.11 µM): 0.286
relative viability (NCI-H2342; first compound 500 µM): 0.294
relative viability (NCI-H522; first compound 5 µM): 0.818
relative viability (NCI-H522; first compound 15.81 µM): 1.01
relative viability (NCI-H522; first compound 50 µM): 0.922
relative viability (NCI-H522; first compound 158.11 µM): 0.84
relative viability (NCI-H522; first compound 500 µM): 0.494
relative viability (SW 900; first compound 5 µM): 0.692
relative viability (SW 900; first compound 15.81 µM): 0.542
relative viability (SW 900; first compound 50 µM): 0.686
relative viability (SW 900; first compound 158.11 µM): 0.262
relative viability (SW 900; first compound 500 µM): 0.121

O=C(O)CCCCC(CCSCc1ccccc1)SCc1ccccc1 (centres undefined) [CPI-613] + N=C(N)NC(=N)NCCc1ccccc1 [Phenformin] (partner 250 µM)
relative viability (A549; first compound 5 µM): 0.162
relative viability (A549; first compound 15.81 µM): 0.172
relative viability (A549; first compound 50 µM): 0.178
relative viability (A549; first compound 158.11 µM): 0.131
relative viability (A549; first compound 500 µM): 0.107
relative viability (NCI-H1563; first compound 5 µM): 0.638
relative viability (NCI-H1563; first compound 15.81 µM): 0.588
relative viability (NCI-H1563; first compound 50 µM): 0.637
relative viability (NCI-H1563; first compound 158.11 µM): 0.503
relative viability (NCI-H1563; first compound 500 µM): 0.27
relative viability (NCI-H1623; first compound 5 µM): 0.63
relative viability (NCI-H1623; first compound 15.81 µM): 0.565
relative viability (NCI-H1623; first compound 50 µM): 0.573
relative viability (NCI-H1623; first compound 158.11 µM): 0.488
relative viability (NCI-H1623; first compound 500 µM): 0.551
relative viability (NCI-H2342; first compound 5 µM): 0.636
relative viability (NCI-H2342; first compound 15.81 µM): 0.589
relative viability (NCI-H2342; first compound 50 µM): 0.586
relative viability (NCI-H2342; first compound 158.11 µM): 0.487
relative viability (NCI-H2342; first compound 500 µM): 0.638
relative viability (NCI-H522; first compound 5 µM): 0.681
relative viability (NCI-H522; first compound 15.81 µM): 0.672
relative viability (NCI-H522; first compound 50 µM): 0.625
relative viability (NCI-H522; first compound 158.11 µM): 0.588
relative viability (NCI-H522; first compound 500 µM): 0.399
relative viability (SW 900; first compound 5 µM): 0.579
relative viability (SW 900; first compound 15.81 µM): 0.542
relative viability (SW 900; first compound 50 µM): 0.4
relative viability (SW 900; first compound 158.11 µM): 0.305
relative viability (SW 900; first compound 500 µM): 0.03

O=c1[nH]c2ccccc2n1C1CCN(CCCC(c2ccc(F)cc2)c2ccc(F)cc2)CC1 [Pimozide] + CCNC(=O)c1noc(-c2cc(C(C)C)c(O)cc2O)c1-c1ccc(CN2CCOCC2)cc1 [Luminespib] (partner 0.01 µM)
relative viability (NCI-H1563; first compound 0.08 µM): 0.511
relative viability (NCI-H1563; first compound 0.253 µM): 0.513
relative viability (NCI-H1563; first compound 0.8 µM): 0.516
relative viability (NCI-H1563; first compound 2.53 µM): 0.549
relative viability (NCI-H1563; first compound 8 µM): 0.496
relative viability (NCI-H1623; first compound 0.253 µM): 0.515
relative viability (NCI-H1623; first compound 0.8 µM): 0.487
relative viability (NCI-H1623; first compound 2.53 µM): 0.521
relative viability (NCI-H1623; first compound 8 µM): 0.447
relative viability (NCI-H2342; first compound 0.08 µM): 0.616
relative viability (NCI-H2342; first compound 0.253 µM): 0.685
relative viability (NCI-H2342; first compound 0.8 µM): 0.611
relative viability (NCI-H2342; first compound 2.53 µM): 0.739
relative viability (NCI-H2342; first compound 8 µM): 0.696
relative viability (NCI-H522; first compound 0.08 µM): 1.01
relative viability (NCI-H522; first compound 0.253 µM): 1.08
relative viability (NCI-H522; first compound 0.8 µM): 1.21
relative viability (NCI-H522; first compound 2.53 µM): 1.21
relative viability (NCI-H522; first compound 8 µM): 1.24
relative viability (SW 900; first compound 0.08 µM): 0.163
relative viability (SW 900; first compound 0.253 µM): 0.157
relative viability (SW 900; first compound 0.8 µM): 0.18
relative viability (SW 900; first compound 2.53 µM): 0.192
relative viability (SW 900; first compound 8 µM): 0.181
